We go through three molecules from patent US4163058A, “Derivatives of 5,5-diphenylhydantoin exhibiting enhanced solubility and the therapeutic use thereof” (INTERX Research Corporation, priority 1977, dated 1979).

Read-outs that look alike come from different tables or passages of the source. Where only a bound is given, the exact number is not on record here.

For data set [1] the following is noted: in vivo, iv; cited from earlier work.
For data set [2] the following is noted: in vivo; cited from earlier work.
The conditions of data set [3]: oral, sodium salt; due to alkalinity of the dosage form; cited from earlier work.
Data set [4] in a line: aqueous solubility (compound added in increments to water until solubility was determined). Type of data set: physicochemical. Here is the method:
The compound was added in increments to water until solubility was determined.

For data set [5] the following is noted: aqueous; comparison value for the parent; cited from earlier work.
For data set [6] the following is noted: 37° C.; cited from earlier work.
For data set [7] the following is noted: cited from earlier work.

As to `O=C1NC(=O)C(c2ccccc2)(c2ccccc2)N1.[Na]`, the “precipitation and blood levels” value in data set [1] is on record as “frequently leads to precipitation of 5,5-diphenylhydantoin as well as erractic blood levels”. Further, the “precipitation at the injection site and release” value in data set [2] is “precipitate 5,5-diphenylhydantoin at the injection site leading to delayed and erractic 5,5-diphenylhydantoin release”. Further, in data set [3], the gastric irritation result is listed as “frequently causes gastric irritation”.
Usually solubility stands for how much of the substance goes into solution per volume. For the molecule `CN(C)CC(=O)OCN1C(=O)NC(c2ccccc2)(c2ccccc2)C1=O` [3-(N,N-dimethylglycyloxymethyl)diphenylhydantoin methanesulfonate], in data set [4] (in water), the solubility was above 100 mg/mL. The “increase in aqueous solubility over diphenylhydantoin” value in data set [4] (versus diphenylhydantoin per se) is ~5,000 fold.
As for `O=C1NC(=O)C(c2ccccc2)(c2ccccc2)N1` [5,5-diphenylhydantoin], in data set [5], the “solubility of the parent specie” value is “less than 0.02 mg/ml”. Besides, in data set [6], the solubility entry is “less than 2 mg. in 100 ml”. Moreover, in data set [7] (both in vitro and in vivo), the release patterns entry was “often produces unpredictable and erractic release patterns”. For the same molecule, in data set [7] (per se as well as from pharmaceutical dosage forms), the bioavailability result is given as “low bioavailability”.
